Measurements as given in PubChem BioAssay AID322 (DTP/NCI, 2004).
Several values for one entry are separate records, joined by “and”; a condition that tells them apart may be missing. Equal entries are not always repeated. Toxic doses and inconclusive results are not listed.

System: CD2F1 mice, P388/ADR leukemia ip, median survival T/C
Assay: NCI In Vivo Anticancer Drug Screen. Data for tumor model P388 Leukemia resistant to Adriamycin; NSC 123127, Developed at Scr 08 (intraperitoneal) in CD2F1 (CDF1) mice
Details: endpoint: median survival time, higher = longer survival
Protocol: The antitumor activity of compounds was measured in mice bearing transplantable tumors. Survival or tumor size were measured and the results are expressed as the measurement made in the treated group (T) divided by the measurement made in the vehicle treated control group (C). The tumor model used in this assay is P388 Leukemia resistant to Adriamycin; NSC 123127, Developed at Scr 08 (intraperitoneal) in CD2F1 (CDF1) mice

[1] = dose: 12.5 mg/kg/injection, schedule: Q01DX005 (ip), vehicle: saline with Tween-80

O=[N+]([O-])c1ccc([I+]c2ccccc2)cc1
T/C (dose: 6.25 mg/kg/injection, schedule: Q01DX005 (ip), vehicle: saline with Tween-80): 124 % of control
T/C [1]: 124 % of control
T/C (dose: 100.0 mg/kg/injection, schedule: Q01DX005 (ip), vehicle: saline with Tween-80): 155 % of control

CC[C@]1(O)C[C@H]2CN(CCc3c([nH]c4ccccc34)[C@@](C(=O)OC)(c3cc4c(cc3OC)N(C)[C@H]3[C@@](O)(C(=O)OC)[C@H](OC(C)=O)[C@]5(CC)C=CCN6CC[C@]43[C@@H]65)C2)C1
T/C (dose: 0.5 mg/kg/injection, schedule: Q04DX003 (ip), vehicle: saline): 101 % of control
T/C (dose: 1.0 mg/kg/injection, schedule: Q04DX003 (ip), vehicle: saline): 100 % of control
T/C (dose: 2.0 mg/kg/injection, schedule: Q04DX003 (ip), vehicle: saline): 100 % of control
T/C (dose: 4.0 mg/kg/injection, schedule: Q04DX003 (ip), vehicle: saline): 83 % of control
T/C (dose: 8.0 mg/kg/injection, schedule: Q04DX003 (ip), vehicle: saline): 57 % of control

COC1CC2C=C(C)/C=C/C=C/C(=O)NC(c3ccccc3)C/C=C/CCC(O)CC(=O)C2=C1O (stereo unspecified)
T/C (dose: 3.12 mg/kg/injection, schedule: Q01DX005 (ip), vehicle: Klucel (hydroxypropylcellulose) (HPC)): 101 % of control
T/C (dose: 6.25 mg/kg/injection, schedule: Q01DX005 (ip), vehicle: Klucel (hydroxypropylcellulose) (HPC)): 116 % of control

N=C(N)c1ccc(N=NNc2ccc(C(=N)N)cc2)cc1
T/C [1]: 105 % of control
T/C (dose: 25.0 mg/kg/injection, schedule: Q01DX005 (ip), vehicle: saline with Tween-80): 115 % of control
T/C (dose: 50.0 mg/kg/injection, schedule: Q01DX005 (ip), vehicle: saline with Tween-80): 117 % of control

OC(CBr)C(O)C(O)C(O)CBr (stereo unspecified)
T/C (dose: 30.0 mg/kg/injection, schedule: Q01DX009 (ip), vehicle: Klucel (hydroxypropylcellulose) (HPC)): 162 % of control

CC1(C)N=C(N)N=C(N)N1c1ccc(CCCCc2ccc(S(=O)(=O)F)cc2Cl)c(Cl)c1
T/C (dose: 18.0 mg/kg/injection, schedule: Q01DX009 (ip), vehicle: saline with Tween-80): 87 % of control
T/C (dose: 27.0 mg/kg/injection, schedule: Q01DX009 (ip), vehicle: saline with Tween-80): 89 % of control and 101 % of control
T/C (dose: 40.0 mg/kg/injection, schedule: Q01DX009 (ip), vehicle: saline with Tween-80): 88 % of control and 102 % of control
T/C (dose: 60.0 mg/kg/injection, schedule: Q01DX009 (ip), vehicle: saline with Tween-80): 112 % of control
T/C (dose: 90.0 mg/kg/injection, schedule: Q01DX009 (ip), vehicle: saline with Tween-80): 91 % of control and 110 % of control
T/C (dose: 110.0 mg/kg/injection, schedule: Q01DX009 (ip), vehicle: saline with Tween-80): 115 % of control

CN(C)/N=N/c1nc[nH]c1C(N)=O
T/C (dose: 25.0 mg/kg/injection, schedule: Q01DX009 (ip), vehicle: distilled water + Tween-80): 112 % of control
T/C (dose: 50.0 mg/kg/injection, schedule: Q01DX009 (ip), vehicle: distilled water + Tween-80): 124 % of control
T/C (dose: 100.0 mg/kg/injection, schedule: Q01DX009 (ip), vehicle: distilled water + Tween-80): 166 % of control
T/C (dose: 200.0 mg/kg/injection, schedule: Q01DX009 (ip), vehicle: distilled water + Tween-80): 158 % of control and 178 % of control
T/C (dose: 400.0 mg/kg/injection, schedule: Q01DX009 (ip), vehicle: distilled water + Tween-80): 201 % of control and 123 % of control

c1ccc(OCC2CO2)c(OCC2CO2)c1 (stereo unspecified)
T/C (dose: 60.0 mg/kg/injection, schedule: Q01DX005 (ip), vehicle: saline with Tween-80): 171 % of control
T/C (dose: 120.0 mg/kg/injection, schedule: Q01DX005 (ip), vehicle: saline with Tween-80): 164 % of control and 167 % of control
T/C (dose: 240.0 mg/kg/injection, schedule: Q01DX005 (ip), vehicle: saline with Tween-80): 252 % of control

Cc1cc(O)c2c(c1O)C(=O)C13C(=C2O)C(=O)C2C(O)C1C1C(O)C3C(=O)C3=C(O)c4c(O)cc(C)c(O)c4C(=O)C321 (stereo unspecified)
T/C (dose: 0.75 mg/kg/injection, schedule: Q01DX005 (ip), vehicle: saline with Tween-80): 101 % of control
T/C (dose: 1.5 mg/kg/injection, schedule: Q01DX005 (ip), vehicle: saline with Tween-80): 117 % of control
T/C (dose: 3.0 mg/kg/injection, schedule: Q01DX005 (ip), vehicle: saline with Tween-80): 122 % of control
T/C (dose: 6.0 mg/kg/injection, schedule: Q01DX005 (ip), vehicle: saline with Tween-80): 123 % of control

O=NN(CCCl)C(=O)NCCCl
T/C (dose: 5.0 mg/kg/injection, schedule: Q01DX001 (ip), vehicle: saline + alcohol): 108 % of control and 123 % of control
T/C (dose: 20.0 mg/kg/injection, schedule: Q01DX001 (ip), vehicle: saline + alcohol): 150 % of control and 195 % of control
T/C (dose: 40.0 mg/kg/injection, schedule: Q01DX001 (ip), vehicle: saline + alcohol): 270 % of control and 309 % of control
T/C (dose: 80.0 mg/kg/injection, schedule: Q01DX001 (ip), vehicle: saline + alcohol): 90 % of control

COc1cccc2c1C(=O)c1c(O)c3c(c(O)c1C2=O)C[C@@](O)(C(=O)CO)C[C@@H]3OC1CC(N2CCOCC2C#N)C(O)C(C)O1 (stereo partly specified)
T/C (dose: 9.38 micrograms/kg/injection, schedule: Q04DX003 (ip), vehicle: saline with Tween-80): 173 % of control and 175 % of control
T/C (dose: 15.0 micrograms/kg/injection, schedule: Q04DX003 (iv), vehicle: saline + alcohol): 107 % of control
T/C (dose: 22.0 micrograms/kg/injection, schedule: Q04DX003 (iv), vehicle: saline + alcohol): 99 % of control
T/C (dose: 33.0 micrograms/kg/injection, schedule: Q04DX003 (iv), vehicle: saline + alcohol): 88 % of control
T/C (dose: 37.5 micrograms/kg/injection, schedule: Q04DX003 (ip), vehicle: saline with Tween-80): 160 % of control

CC[C@]1(O)C[C@H]2CN(CCc3c([nH]c4ccccc34)[C@@](C(=O)OC)(c3cc4c(cc3OC)N(C=O)[C@H]3[C@@](O)(C(=O)OC)[C@H](OC(C)=O)[C@]5(CC)C=CCN6CC[C@]43[C@@H]65)C2)C1
T/C (dose: 0.43 mg/kg/injection, schedule: Q04DX002 (ip), vehicle: saline): 109 % of control
T/C (dose: 0.72 mg/kg/injection, schedule: Q04DX002 (ip), vehicle: saline): 111 % of control
T/C (dose: 1.2 mg/kg/injection, schedule: Q04DX002 (ip), vehicle: saline): 109 % of control
T/C (dose: 2.0 mg/kg/injection, schedule: Q04DX002 (ip), vehicle: saline): 103 % of control
T/C (dose: 3.33 mg/kg/injection, schedule: Q04DX002 (ip), vehicle: saline): 115 % of control

[CH3][Sn]([CH3])([Cl])[c]1cc[c]([Sn]([CH3])([CH3])[Cl])cc1
T/C (dose: 0.19 mg/kg/injection, schedule: Q01DX005 (ip), vehicle: suspension in saline): 96 % of control
T/C (dose: 0.39 mg/kg/injection, schedule: Q01DX005 (ip), vehicle: suspension in saline): 105 % of control
T/C (dose: 0.78 mg/kg/injection, schedule: Q01DX005 (ip), vehicle: suspension in saline): 114 % of control
T/C (dose: 1.56 mg/kg/injection, schedule: Q01DX005 (ip), vehicle: suspension in saline): 114 % of control

O=C(Nc1ccccc1)c1c(O)[nH]c(=S)[nH]c1=O
T/C (dose: 30.0 mg/kg/injection, schedule: Q01DX009 (ip), vehicle: saline with Tween-80): 173 % of control
T/C (dose: 44.0 mg/kg/injection, schedule: Q01DX009 (ip), vehicle: saline with Tween-80): 181 % of control
T/C (dose: 67.0 mg/kg/injection, schedule: Q01DX009 (ip), vehicle: saline with Tween-80): 160 % of control
T/C (dose: 75.0 mg/kg/injection, schedule: Q01DX009 (ip), vehicle: saline with Tween-80): 170 % of control
T/C (dose: 100.0 mg/kg/injection, schedule: Q01DX009 (ip), vehicle: saline with Tween-80): 173 % of control and 181 % of control
T/C (dose: 125.0 mg/kg/injection, schedule: Q01DX009 (ip), vehicle: saline with Tween-80): 195 % of control
T/C (dose: 150.0 mg/kg/injection, schedule: Q01DX009 (ip), vehicle: saline with Tween-80): 197 % of control

CO[C@@]12[C@@H]3N[C@@H]3CN1C1=C(C(=O)C(N3CCCC3)=C(C)C1=O)[C@@H]2COC(N)=O
T/C (dose: 3.75 mg/kg/injection, schedule: Q01DX005 (ip), vehicle: saline with Tween-80): 122 % of control
T/C (dose: 10.4 mg/kg/injection, schedule: Q01DX005 (ip), vehicle: saline with Tween-80): 122 % of control
T/C [1]: 117 % of control and 120 % of control
T/C (dose: 17.4 mg/kg/injection, schedule: Q01DX005 (ip), vehicle: saline with Tween-80): 113 % of control
